Source: ChEMBL document CHEMBL5537201, “Discovery of Unique Bis-Substituted Aromatic Amide Derivatives as Novel Highly Potent Antibiotics for Combating Methicillin-Resistant Staphylococcus aureus (MRSA)” (J Med Chem, 2024)
Converted amounts (≈) assume the structure as drawn. The source made the active and inactive calls. The rule behind the calls is not given here.

Columns and labels:
Staphylococcus aureus [1] = assay: Induction of drug resistance in Staphylococcus aureus ATCC6538 assessed as fold change in MIC measured after 10 passages; type: functional
Staphylococcus aureus [2] = assay: Bactericidal activity against Staphylococcus aureus ATCC6538 at 5 ug/ml measured upto 150 mins; type: functional, organism-based; details: dose 5.0 µg/ml
Staphylococcus aureus [3] = assay: Bactericidal activity against norfloxacin-resistant Staphylococcus aureus ATCC6538 at 5 ug/ml measured upto 150 mins; type: functional, organism-based; details: dose 5.0 µg/ml
Streptomyces albus = assay: Antimicrobial activity against Streptomyces albus SHBC D11158 assessed as reduction in bacterial growth incubated for 24 hrs by two-fold broth dilution method; type: functional
Staphylococcus hominis [4] = assay: Antimicrobial activity against methicillin-resistant Staphylococcus hominis assessed as reduction in bacterial growth incubated for 24 hrs by two-fold broth dilution method; type: functional
Staphylococcus hominis [5] = assay: Bactericidal activity against multidrug-resistant Staphylococcus hominis at 5 ug/ml measured upto 150 mins; type: functional, organism-based; details: dose 5.0 µg/ml
Staphylococcus aureus [6] = assay: Antimicrobial activity against vancomycin-resistant Staphylococcus aureus assessed as reduction in bacterial growth incubated for 24 hrs by two-fold broth dilution method; type: functional
Cell membrane [7] = assay: Disruption of cell membrane integrity in Staphylococcus aureus ATCC6538 assessed as increase in fluorescence intensity measured upto 36 mins ethidium bromide uptake assay; type: cell membranes
Cell membrane [8] = assay: Disruption of cell membrane integrity in methicillin resistant Staphylococcus aureus clinical isolate MRS153 assessed as increase in fluorescence intensity measured upto 36 mins ethidium bromide uptake assay; type: cell membranes
Staphylococcus aureus [9] = assay: Antimicrobial activity against Staphylococcus aureus ATCC6538 assessed as reduction in bacterial growth incubated for 24 hrs by two-fold broth dilution method; type: functional
Staphylococcus aureus [10] = assay: Antimicrobial activity against Staphylococcus aureus N315 assessed as reduction in bacterial growth incubated for 24 hrs by two-fold broth dilution method; type: functional
Staphylococcus aureus [11] = assay: Bactericidal activity against Staphylococcus aureus ATCC6538 assessed as reduction in survival rate at 5 to 10 times MIC measured within 1 hr by colony counting method; type: functional, organism-based
[12] = Hemolytic activity in rabbit Red blood cell assessed as hemolysis incubated for 1 hr by two-fold microdilution method; type: toxicity, cell-based, Oryctolagus cuniculus, Erythrocyte; details: red blood cells (erythrocytes)
[13] = Selectivity index, ratio of HC50 for rabbit Red blood cell to MIC for Staphylococcus aureus ATCC6538; type: toxicity; details: red blood cells (erythrocytes), read-out: Selectivity Index
[14] = Cytotoxicity against African green monkey Vero E6 cells assessed as reduction in cell viability measured after 24 hrs by CCK-8 method; type: toxicity, cell-based, Chlorocebus sabaeus, Vero C1008
[15] = Selectivity index, ratio of IC50 for African green monkey Vero E6 cells to MIC for Staphylococcus aureus ATCC6538; type: toxicity; details: read-out: Selectivity Index
HeLa = assay: Cytotoxicity against human HeLa cells assessed as reduction in cell viability measured after 24 hrs by CCK-8 method; type: functional, cell-based
[16] = Cytotoxicity against human HaCaT cells assessed as reduction in cell viability measured after 24 hrs by CCK-8 method; type: toxicity, cell-based
[17] = Cytotoxicity against HEK293 cells assessed as reduction in cell viability measured after 24 hrs by CCK-8 method; type: toxicity, cell-based; details: human
A549 = assay: Cytotoxicity against human A549 cells assessed as reduction in cell viability measured after 24 hrs by CCK-8 method; type: functional, cell-based; details: A549, 24 h
Staphylococcus aureus [18] = assay: Antimicrobial activity against methicillin resistant Staphylococcus aureus clinical isolate MRS1 assessed as reduction in bacterial growth incubated for 24 hrs by two-fold broth dilution method; type: functional
Staphylococcus aureus [19] = assay: Antimicrobial activity against methicillin resistant Staphylococcus aureus clinical isolate MRS23 assessed as reduction in bacterial growth incubated for 24 hrs by two-fold broth dilution method; type: functional
Staphylococcus aureus [20] = assay: Antimicrobial activity against methicillin resistant Staphylococcus aureus clinical isolate MRS70 assessed as reduction in bacterial growth incubated for 24 hrs by two-fold broth dilution method; type: functional
Staphylococcus aureus [21] = assay: Antimicrobial activity against methicillin resistant Staphylococcus aureus clinical isolate MRS207 assessed as reduction in bacterial growth incubated for 24 hrs by two-fold broth dilution method; type: functional
Staphylococcus aureus [22] = assay: Antimicrobial activity against methicillin resistant Staphylococcus aureus clinical isolate MRS108 assessed as reduction in bacterial growth incubated for 24 hrs by two-fold broth dilution method; type: functional
Staphylococcus aureus [23] = assay: Antimicrobial activity against methicillin resistant Staphylococcus aureus clinical isolate MRS152 assessed as reduction in bacterial growth incubated for 24 hrs by two-fold broth dilution method; type: functional
Staphylococcus aureus [24] = assay: Antimicrobial activity against methicillin resistant Staphylococcus aureus clinical isolate MRS200 assessed as reduction in bacterial growth incubated for 24 hrs by two-fold broth dilution method; type: functional
Staphylococcus aureus [25] = assay: Antimicrobial activity against methicillin resistant Staphylococcus aureus clinical isolate MRS273 assessed as reduction in bacterial growth incubated for 24 hrs by two-fold broth dilution method; type: functional
Staphylococcus aureus [26] = assay: Antimicrobial activity against methicillin resistant Staphylococcus aureus clinical isolate MRS153 assessed as reduction in bacterial growth incubated for 24 hrs by two-fold broth dilution method; type: functional
Staphylococcus aureus [27] = assay: Antimicrobial activity against methicillin resistant Staphylococcus aureus clinical isolate MRS84 assessed as reduction in bacterial growth incubated for 24 hrs by two-fold broth dilution method; type: functional
Staphylococcus aureus [28] = assay: Antimicrobial activity against methicillin resistant Staphylococcus aureus clinical isolate MRS121 assessed as reduction in bacterial growth incubated for 24 hrs by two-fold broth dilution method; type: functional
Staphylococcus aureus [29] = assay: Antimicrobial activity against methicillin resistant Staphylococcus aureus clinical isolate MRS97 assessed as reduction in bacterial growth incubated for 24 hrs by two-fold broth dilution method; type: functional
Staphylococcus aureus [30] = assay: Induction of drug resistance in Staphylococcus aureus ATCC6538 assessed as change in MIC measured after 10 passages; type: functional
Staphylococcus aureus [31] = assay: Bactericidal activity against methicillin-resistant Staphylococcus aureus clinical isolate MRS1 at 5 ug/ml measured upto 150 mins; type: functional, organism-based; details: dose 5.0 µg/ml
Staphylococcus aureus [32] = assay: Bactericidal activity against methicillin-resistant Staphylococcus aureus clinical isolate MRS153 at 5 ug/ml measured upto 150 mins; type: functional, organism-based; details: dose 5.0 µg/ml
Staphylococcus aureus [33] = assay: Bactericidal activity against methicillin-resistant Staphylococcus aureus clinical isolate MRS97 at 5 ug/ml measured upto 150 mins; type: functional, organism-based; details: dose 5.0 µg/ml
Staphylococcus aureus [34] = assay: Bactericidal activity against Staphylococcus aureus ATCC6538 assessed as reduction in survival rate at 5 to 10 times MIC measured after 30 to 120 mins by colony counting method relative to control; type: functional; details: time 30-120 min

SMILES: CCn1cc(C(=O)O)c(=O)c2cc(F)c(N3CCNCC3)cc21
- fold change (FC) (Staphylococcus aureus [1]): 256
- Activity (Staphylococcus aureus [2]): Active
- Activity (Staphylococcus aureus [3]): inactive

SMILES: CN[C@H](CC(C)C)C(=O)N[C@H]1C(=O)N[C@@H](CC(N)=O)C(=O)N[C@H]2C(=O)N[C@H]3C(=O)N[C@H](C(=O)N[C@H](C(=O)O)c4cc(O)cc(O)c4-c4cc3ccc4O)[C@H](O)c3ccc(c(Cl)c3)Oc3cc2cc(c3O[C@@H]2O[C@H](CO)[C@@H](O)[C@H](O)[C@H]2O[C@H]2C[C@](C)(N)[C@H](O)[C@H](C)O2)Oc2ccc(cc2Cl)[C@H]1O [VANCOMYCIN]
- MIC (Streptomyces albus): 2 µg/mL (≈ 1.38 µM)
- MIC (Staphylococcus hominis [4]): 1 µg/mL (≈ 0.69 µM)
- Activity (Staphylococcus aureus [2]): inactive
- Activity (Staphylococcus hominis [5]): inactive
- MIC (Staphylococcus aureus [6]): ≥ 8 µg/mL
- Activity (Cell membrane [7]): inactive
- Activity (Cell membrane [8]): inactive

SMILES: O=C(CCC(F)(F)F)N(Cc1cc2ccccc2s1)c1cc(-c2cccc(C(F)(F)F)c2)ccc1O
- MIC (Staphylococcus aureus [9]): 1 µg/mL (≈ 1.91 µM)
- MIC (Staphylococcus aureus [10]): 2 µg/mL (≈ 3.82 µM)
- MIC (Streptomyces albus): 2 µg/mL (≈ 3.82 µM)
- MIC (Staphylococcus hominis [4]): 2 µg/mL (≈ 3.82 µM)
- Activity (Staphylococcus aureus [11]): Active
- HC50 at 1 h [12]: 3280 µg/mL
- selectivity ratio [13]: > 1000
- IC50 at 24 h [14]: 20.3 µg/mL (≈ 38.8 µM)
- selectivity ratio [15]: 20
- IC50 (HeLa): 13.4 µg/mL (≈ 25.5 µM)
- IC50 at 24 h [16]: 13 µg/mL (≈ 24.8 µM)
- IC50 at 24 h [17]: 12.2 µg/mL (≈ 23.4 µM)
- IC50 (A549): 12.5 µg/mL (≈ 23.9 µM)
- MIC (Staphylococcus aureus [18]): 3 µg/mL (≈ 5.73 µM)
- MIC (Staphylococcus aureus [19]): 6 µg/mL (≈ 11.5 µM)
- MIC (Staphylococcus aureus [20]): 6 µg/mL (≈ 11.5 µM)
- MIC (Staphylococcus aureus [21]): 6 µg/mL (≈ 11.5 µM)
- MIC (Staphylococcus aureus [22]): 6 µg/mL (≈ 11.5 µM)
- MIC (Staphylococcus aureus [23]): > 16 µg/mL
- MIC (Staphylococcus aureus [24]): 6 µg/mL (≈ 11.5 µM)
- MIC (Staphylococcus aureus [25]): 3 µg/mL (≈ 5.73 µM)
- MIC (Staphylococcus aureus [26]): 6 µg/mL (≈ 11.5 µM)
- MIC (Staphylococcus aureus [27]): 3 µg/mL (≈ 5.73 µM)
- MIC (Staphylococcus aureus [28]): 3 µg/mL (≈ 5.73 µM)
- MIC (Staphylococcus aureus [29]): 3 µg/mL (≈ 5.73 µM)
- Activity (Staphylococcus aureus [30]): inactive

SMILES: COc1cccc(OC)c1C(=O)N[C@@H]1C(=O)N2[C@@H]1SC(C)(C)[C@@H]2C(=O)O [METHICILLIN]
- MIC (Staphylococcus aureus [9]): 1 µg/mL (≈ 2.63 µM)
- MIC (Streptomyces albus): 4 µg/mL (≈ 10.5 µM)
- MIC (Staphylococcus hominis [4]): 2 µg/mL (≈ 5.26 µM)
- MIC (Staphylococcus aureus [18]): 16 µg/mL (≈ 42.1 µM)
- MIC (Staphylococcus aureus [19]): 8 µg/mL (≈ 21 µM)
- MIC (Staphylococcus aureus [20]): 16 µg/mL (≈ 42.1 µM)
- MIC (Staphylococcus aureus [21]): 16 µg/mL (≈ 42.1 µM)
- MIC (Staphylococcus aureus [22]): 16 µg/mL (≈ 42.1 µM)
- MIC (Staphylococcus aureus [23]): 8 µg/mL (≈ 21 µM)
- MIC (Staphylococcus aureus [24]): > 16 µg/mL
- MIC (Staphylococcus aureus [25]): 16 µg/mL (≈ 42.1 µM)
- MIC (Staphylococcus aureus [26]): > 16 µg/mL
- MIC (Staphylococcus aureus [27]): 16 µg/mL (≈ 42.1 µM)
- MIC (Staphylococcus aureus [28]): 8 µg/mL (≈ 21 µM)
- MIC (Staphylococcus aureus [29]): 8 µg/mL (≈ 21 µM)
- Activity (Staphylococcus aureus [31]): inactive
- Activity (Staphylococcus aureus [32]): inactive
- Activity (Staphylococcus aureus [33]): inactive

SMILES: O=C(CCC(F)(F)F)N(Cc1cc2ccccc2s1)c1cc(-c2ccc(F)cc2)ccc1O
- MIC (Staphylococcus aureus [9]): 1 µg/mL (≈ 2.11 µM)
- MIC (Staphylococcus aureus [10]): 1 µg/mL (≈ 2.11 µM)
- MIC (Streptomyces albus): 16 µg/mL (≈ 33.8 µM)
- MIC (Staphylococcus hominis [4]): 8 µg/mL (≈ 16.9 µM)
- Survival (Staphylococcus aureus [34]): <1%
- HC50 at 1 h [12]: 2150 µg/mL
- selectivity ratio [13]: > 1000
- IC50 at 24 h [14]: 17.3 µg/mL (≈ 36.6 µM)
- selectivity ratio [15]: 18
- IC50 (HeLa): 16.7 µg/mL (≈ 35.3 µM)
- IC50 at 24 h [16]: 14.7 µg/mL (≈ 31 µM)
- IC50 at 24 h [17]: 20.7 µg/mL (≈ 43.8 µM)
- IC50 (A549): 10 µg/mL (≈ 21.1 µM)
- MIC (Staphylococcus aureus [18]): 6 µg/mL (≈ 12.7 µM)
- MIC (Staphylococcus aureus [19]): 2 µg/mL (≈ 4.22 µM)
- MIC (Staphylococcus aureus [20]): 6 µg/mL (≈ 12.7 µM)
- MIC (Staphylococcus aureus [21]): 3 µg/mL (≈ 6.34 µM)
- MIC (Staphylococcus aureus [22]): 2 µg/mL (≈ 4.22 µM)
- MIC (Staphylococcus aureus [23]): 6 µg/mL (≈ 12.7 µM)
- MIC (Staphylococcus aureus [24]): 6 µg/mL (≈ 12.7 µM)
- MIC (Staphylococcus aureus [25]): 2 µg/mL (≈ 4.22 µM)
- MIC (Staphylococcus aureus [26]): 2 µg/mL (≈ 4.22 µM)
- MIC (Staphylococcus aureus [27]): 2 µg/mL (≈ 4.22 µM)
- MIC (Staphylococcus aureus [28]): 2 µg/mL (≈ 4.22 µM)
- MIC (Staphylococcus aureus [29]): 2 µg/mL (≈ 4.22 µM)
- Activity (Staphylococcus aureus [30]): inactive
